# Source: PubChem BioAssay AID330 (DTP/NCI, 2004)
# Where “and” joins values, the source holds several entries; their conditions need not be identical. Equal entries are not always repeated. Toxic doses and inconclusive results are not listed.
# System: P388 leukemia ip, CD2F1 mice, survival T/C
# Test: NCI In Vivo Anticancer Drug Screen. Data for tumor model P388 Leukemia (intraperitoneal) in CD2F1 (CDF1) mice
# Settings: endpoint: median survival time, higher = longer survival
# Method in brief: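 Mice carrying the transplanted tumor received test compound or vehicle. Survival was recorded in each group, and the value is the treated-group measurement divided by that of the vehicle-treated control group.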
# [1] = dose: 60.0 mg/kg/injection, schedule: Q01DX005 (ip), vehicle: saline with Tween-80
# [2] = dose: 50.0 mg/kg/injection, schedule: Q01DX009 (ip), vehicle: saline
# [3] = dose: 100.0 mg/kg/injection, schedule: Q01DX009 (ip), vehicle: saline
# [4] = dose: 200.0 mg/kg/injection, schedule: Q01DX009 (ip), vehicle: saline
structure (smiles),measurement,setting,value
O=c1[nH]cc(CSc2ncc[nH]2)c(=O)[nH]1,T/C,"dose: 30.0 mg/kg/injection, schedule: Q01DX005 (ip), vehicle: saline",119 % of control
same,T/C,[1],119 % of control
same,T/C,"dose: 60.0 mg/kg/injection, schedule: Q01DX005 (ip), vehicle: saline",124 % of control
N#CC1OC1c1ccccn1 (stereo not drawn),T/C,"dose: 6.25 mg/kg/injection, schedule: Q01DX005 (ip), vehicle: saline + Tween-80 + alcohol",98 % of control
same,T/C,"dose: 12.5 mg/kg/injection, schedule: Q01DX005 (ip), vehicle: saline + Tween-80 + alcohol",98 % of control
O=C1C(CO)=C[C@H](O)[C@H]2O[C@@H]12,T/C,"dose: 6.25 mg/kg/injection, schedule: Q01DX009 (ip), vehicle: saline + alcohol",119 % of control
same,T/C,"dose: 12.5 mg/kg/injection, schedule: Q01DX009 (ip), vehicle: saline + alcohol",152 % of control
same,T/C,"dose: 25.0 mg/kg/injection, schedule: Q01DX009 (ip), vehicle: saline + alcohol",152 % of control and 157 % of control
same,T/C,"dose: 50.0 mg/kg/injection, schedule: Q01DX009 (ip), vehicle: saline + alcohol",106 % of control
c1ccc(-c2nc3ccccc3c3ccccc23)cc1,T/C,"dose: 50.0 mg/kg/injection, schedule: Q01DX005 (ip), vehicle: saline with Tween-80",101 % of control
same,T/C,"dose: 100.0 mg/kg/injection, schedule: Q01DX005 (ip), vehicle: saline with Tween-80",113 % of control
same,T/C,"dose: 200.0 mg/kg/injection, schedule: Q01DX005 (ip), vehicle: saline with Tween-80",102 % of control
CCCCCCC[CH2][Sn]([CH2]CCCCCCC)([CH2]CCCCCCC)[O]C(C)=O,T/C,[2],97 % of control
same,T/C,[3],100 % of control
same,T/C,[4],94 % of control
Nc1n[nH]c(N)c1N=Nc1ccccc1,T/C,"dose: 50.0 mg/kg/injection, schedule: Q01DX009 (ip), vehicle: Klucel (hydroxypropylcellulose) (HPC)",98 % of control
same,T/C,"dose: 100.0 mg/kg/injection, schedule: Q01DX009 (ip), vehicle: Klucel (hydroxypropylcellulose) (HPC)",99 % of control
same,T/C,"dose: 200.0 mg/kg/injection, schedule: Q01DX009 (ip), vehicle: Klucel (hydroxypropylcellulose) (HPC)",93 % of control
same,T/C,"dose: 400.0 mg/kg/injection, schedule: Q01DX009 (ip), vehicle: Klucel (hydroxypropylcellulose) (HPC)",94 % of control
CC(C)[C@](O)(C(=O)OCC1CCN2CC[C@@H](O)C12)[C@H](C)O (stereo partly drawn),T/C,"dose: 40.6 mg/kg/injection, schedule: Q01DX009 (ip), vehicle: saline",96 % of control
same,T/C,"dose: 81.25 mg/kg/injection, schedule: Q01DX009 (ip), vehicle: saline",102 % of control
same,T/C,"dose: 162.5 mg/kg/injection, schedule: Q01DX009 (ip), vehicle: saline",92 % of control and 98 % of control
COc1c(CC(O)C(C)(C)O)c(=O)n(C)c2ccccc12 (stereo not drawn),T/C,"dose: 4.5 mg/kg/injection, schedule: Q01DX005 (ip), vehicle: Klucel (hydroxypropylcellulose) (HPC)",102 % of control
same,T/C,"dose: 9.0 mg/kg/injection, schedule: Q01DX005 (ip), vehicle: Klucel (hydroxypropylcellulose) (HPC)",98 % of control
same,T/C,"dose: 18.0 mg/kg/injection, schedule: Q01DX005 (ip), vehicle: Klucel (hydroxypropylcellulose) (HPC)",90 % of control
same,T/C,"dose: 36.0 mg/kg/injection, schedule: Q01DX005 (ip), vehicle: Klucel (hydroxypropylcellulose) (HPC)",93 % of control
Cc1cc(C)c(OC2=C(c3c(C)cc(C)cc3C)C(=O)c3ccccc32)c(C)c1,T/C,"dose: 50.0 mg/kg/injection, schedule: Q01DX009 (ip), vehicle: saline with Tween-80",94 % of control
same,T/C,"dose: 100.0 mg/kg/injection, schedule: Q01DX009 (ip), vehicle: saline with Tween-80",94 % of control
same,T/C,"dose: 200.0 mg/kg/injection, schedule: Q01DX009 (ip), vehicle: saline with Tween-80",86 % of control
CCOC(=O)C(C(C)N1CCOCC1)N1CCOCC1 (stereo not drawn),T/C,"dose: 50.0 mg/kg/injection, schedule: Q01DX005 (ip), vehicle: Klucel (hydroxypropylcellulose) (HPC)",110 % of control
same,T/C,"dose: 100.0 mg/kg/injection, schedule: Q01DX005 (ip), vehicle: Klucel (hydroxypropylcellulose) (HPC)",100 % of control
same,T/C,"dose: 200.0 mg/kg/injection, schedule: Q01DX005 (ip), vehicle: Klucel (hydroxypropylcellulose) (HPC)",101 % of control
COCCCN1C(=O)/C(=C/c2ccccn2)SC1=S,T/C,[2],97 % of control
same,T/C,[3],96 % of control
same,T/C,[4],96 % of control
O=C1C(c2cnccn2)=C(O)c2ccccc21,T/C,"dose: 15.0 mg/kg/injection, schedule: Q01DX005 (ip), vehicle: saline with Tween-80",91 % of control
same,T/C,"dose: 30.0 mg/kg/injection, schedule: Q01DX005 (ip), vehicle: saline with Tween-80",97 % of control
same,T/C,[1],100 % of control and 90 % of control
